From patent US20220372067A1, “3.ALPHA.-HYDROXY-17.BETA.-AMIDE NEUROACTIVE STEROIDS AND COMPOSITIONS THEREOF” (SAGE THERAPEUTICS, INC., priority 2018, published 2022) come the findings set out here.

The target of the experiment is GABAA receptor (TBPS binding site), rat brain cortical membranes. Description: [35S]-TBPS binding assay, rat brain cortical membranes in the presence of 5 mM GABA. The conditions noted are these: inhibition of 3 nM [35S]-TBPS binding. As to the method: [^35S]-t-Butylbicyclophosphorothionate (TBPS) binding assays using rat brain cortical membranes in the presence of 5 mM GABA has been described (Gee et al, J. Pharmacol. Exp. Ther. 1987, 241, 346-353; Hawkinson et al, Mol. Pharmacol. 1994, 46, 977-985; Lewin, A. H et al., Mol. Pharmacol. 1989, 35, 189-194).
Briefly, cortices are rapidly removed following decapitation of carbon dioxide-anesthetized Sprague-Dawley rats (200-250 g). The cortices are homogenized in 10 volumes of ice-cold 0.32 M sucrose using a glass/teflon homogenizer and centrifuged at 1500×g for 10 min at 4° C. The resultant supernatants are centrifuged at 10,000×g for 20 min at 4° C. to obtain the P2 pellets. The P2 pellets are resuspended in 200 mM NaCl/50 mM Na—K phosphate pH 7.4 buffer and centrifuged at 10,000×g for 10 min at 4° C. This washing procedure is repeated twice and the pellets are resuspended in 10 volumes of buffer. Aliquots ([…]) of the membrane suspensions are incubated with 3 nM [^35S]-TBPS and […] aliquots of test drug dissolved in dimethyl sulfoxide (DMSO) (final 0.5%) in the presence of 5 mM GABA. The incubation is brought to a final volume of 1.0 mL with buffer. Nonspecific binding is determined in the presence of […] and ranged from 15 to 25%. Following a 90 min incubation at room temp, the assays are terminated by filtration through glass fiber filters (Schleicher and Schuell No. 32) using a cell harvester (Brandel) and rinsed three times with ice-cold buffer. Filter bound radioactivity is measured by liquid scintillation spectrometry. Non-linear curve fitting of the overall data for each drug averaged for each concentration is done using Prism (GraphPad). […] The concentration of test compound producing 50% inhibition (IC50) of specific binding and the maximal extent of inhibition (Imax) are determined for the individual experiments with the same model used for the overall data and then the means±SEM.s of the individual experiments are calculated.
Various compounds are or can be screened to determine their potential as modulators of [^35S]-TBPS binding in vitro. These assays are or can be performed in accordance with the above
In the case of `CCOC[C@@]1(O)CC[C@H]2[C@H](CC[C@@H]3[C@@H]2CC[C@]2(C)[C@@H](C(=O)Nc4ccc(C#N)nc4C)CC[C@@H]32)C1` [Example 27], the 50% inhibitory concentration (IC50) (in general, the concentration at which inhibition is half-maximal) is less than 100 nM.

`CCOC[C@@]1(O)CC[C@H]2[C@H](CC[C@@H]3[C@@H]2CC[C@]2(C)[C@@H](C(=O)Nc4cnc(C#N)cn4)CC[C@@H]32)C1` [Example 28]: the half-maximal inhibitory concentration (IC50) was less than 100 nM.

Consider `CCOC[C@@]1(O)CC[C@H]2[C@H](CC[C@@H]3[C@@H]2CC[C@]2(C)[C@@H](C(=O)Nc4ccc(C#N)nn4)CC[C@@H]32)C1` [Example 29], for which the IC50 is less than 100 nM.

For `CCOC[C@@]1(O)CC[C@H]2[C@H](CC[C@@H]3[C@@H]2CC[C@]2(C)[C@@H](C(=O)Nc4cc(C)nn4C)CC[C@@H]32)C1` [Example 30], the half-maximal inhibitory concentration (IC50) is less than 100 nM.

Take `CCOC[C@@]1(O)CC[C@@]2(C)[C@H](CC[C@@H]3[C@@H]2CC[C@]2(C)[C@@H](C(=O)Nc4ccc(C#N)cn4)CC[C@@H]32)C1` [Example 31]: the IC50 was less than 100 nM.

Consider `COC[C@@]1(O)CC[C@@]2(C)[C@@H](CC[C@@H]3[C@@H]2CC[C@]2(C)[C@@H](C(=O)Nc4cccnc4C)CC[C@@H]32)C1` [Example 32], for which the IC50 is less than 100 nM.

On to `CCOC[C@@]1(O)CC[C@@]2(CC)[C@H](CC[C@H]3[C@@H]4CC[C@H](C(=O)Nc5ccc(C#N)cn5)[C@@]4(C)CC[C@@H]32)C1` [Example 33], for which the half-inhibitory concentration (IC50) is less than 100 nM.

On to `CCOC[C@@]1(O)CC[C@@]2(CC)[C@H](CC[C@H]3[C@@H]4CC[C@H](C(=O)Nc5cc(C#N)nn5C)[C@@]4(C)CC[C@@H]32)C1` [Example 35], for which the IC50 was less than 100 nM.

For the compound `CCOC[C@@]1(O)CC[C@@]2(CC)[C@H](CC[C@H]3[C@@H]4CC[C@H](C(=O)Nc5cc(C#N)n(C)n5)[C@@]4(C)CC[C@@H]32)C1` [Example 36], the IC50 is less than 100 nM.

For the compound `CCOC[C@@]1(O)CC[C@H]2[C@H](CC[C@@H]3[C@@H]2CC[C@]2(C)[C@@H](C(=O)Nc4cc(C#N)nn4C)CC[C@@H]32)C1` [Example 37], the IC50 is less than 100 nM.

Consider `COC[C@@]1(O)CC[C@H]2[C@H](CC[C@@H]3[C@@H]2CC[C@]2(C)[C@@H](C(=O)Nc4cccc(C)n4)CC[C@@H]32)C1` [Example 38], for which the IC50 was less than 100 nM.

As for `COC[C@@]1(O)CC[C@H]2[C@H](CC[C@@H]3[C@@H]2CC[C@]2(C)[C@@H](C(=O)Nc4ncccc4Cl)CC[C@@H]32)C1` [Example 39], the IC50 lay in the range of 100 to 1000 nM.

On to `COC[C@@]1(O)CC[C@H]2[C@H](CC[C@@H]3[C@@H]2CC[C@]2(C)[C@@H](C(=O)Nc4ccc(C)nc4)CC[C@@H]32)C1` [Example 40], for which the IC50 was less than 100 nM.

With `COC[C@@]1(O)CC[C@H]2[C@H](CC[C@@H]3[C@@H]2CC[C@]2(C)[C@@H](C(=O)Nc4ccc(C#N)nc4C)CC[C@@H]32)C1` [Example 41], the IC50 was less than 100 nM.

For the compound `COC[C@@]1(O)CC[C@H]2[C@H](CC[C@@H]3[C@@H]2CC[C@]2(C)[C@@H](C(=O)Nc4ccc(C#N)nc4Cl)CC[C@@H]32)C1` [Example 42], the IC50 is less than 100 nM.

Take `COC[C@@]1(O)CC[C@H]2[C@H](CC[C@@H]3[C@@H]2CC[C@]2(C)[C@@H](C(=O)Nc4ccc(C)nc4Cl)CC[C@@H]32)C1` [Example 43]: the 50% inhibitory concentration (IC50) is less than 100 nM.

For `COC[C@@]1(O)CC[C@H]2[C@H](CC[C@@H]3[C@@H]2CC[C@]2(C)[C@@H](C(=O)Nc4nc(C)ccc4Cl)CC[C@@H]32)C1` [Example 44], the IC50 lay in the range of 100 to 1000 nM.

For `COC[C@@]1(O)CC[C@H]2[C@H](CC[C@@H]3[C@@H]2CC[C@]2(C)[C@@H](C(=O)Nc4cccc(-n5ccc(C)n5)n4)CC[C@@H]32)C1` [Example 45], the IC50 is less than 100 nM.

On to `COC[C@@]1(O)CC[C@H]2[C@H](CC[C@@H]3[C@@H]2CC[C@]2(C)[C@@H](C(=O)Nc4ccc(C(F)(F)F)nc4C)CC[C@@H]32)C1` [Example 46], for which the concentration for half-maximal inhibition (IC50) is less than 100 nM.

With `COC[C@@]1(O)CC[C@H]2[C@H](CC[C@@H]3[C@@H]2CC[C@]2(C)[C@@H](C(=O)Nc4ccc(-n5nccc5C)nc4C)CC[C@@H]32)C1` [Example 47], the IC50 is less than 100 nM.

Consider `COC[C@@]1(O)CC[C@H]2[C@H](CC[C@@H]3[C@@H]2CC[C@]2(C)[C@@H](C(=O)Nc4ccc(-c5ncc(F)cn5)nc4C)CC[C@@H]32)C1` [Example 48], for which the concentration for half-maximal inhibition (IC50) is less than 100 nM.

For `COC[C@@]1(O)CC[C@H]2[C@H](CC[C@@H]3[C@@H]2CC[C@]2(C)[C@@H](C(=O)Nc4ccc(N5CCCC5=O)nc4C)CC[C@@H]32)C1` [Example 49], the concentration for half-maximal inhibition (IC50) was less than 100 nM.

For the compound `COC[C@@]1(O)CC[C@H]2[C@H](CC[C@@H]3[C@@H]2CC[C@]2(C)[C@@H](C(=O)Nc4cccc(N5CCCC5=O)n4)CC[C@@H]32)C1` [Example 50], the IC50 was less than 100 nM.

Take `COC[C@@]1(O)CC[C@H]2[C@H](CC[C@@H]3[C@@H]2CC[C@]2(C)[C@@H](C(=O)Nc4cccnc4C)CC[C@@H]32)C1` [Example 51]: the half-maximal inhibitory concentration (IC50) is less than 100 nM.

In the case of `COC[C@@]1(O)CC[C@H]2[C@H](CC[C@@H]3[C@@H]2CC[C@]2(C)[C@@H](C(=O)Nc4ccc(-n5ccc(C)n5)nc4C)CC[C@@H]32)C1` [Example 52], the concentration for half-maximal inhibition (IC50) is less than 100 nM.

As to `CCOC[C@@]1(O)CC[C@H]2[C@H](CC[C@@H]3[C@@H]2CC[C@]2(C)[C@@H](C(=O)Nc4c5c(nn4C)CCCC5)CC[C@@H]32)C1` [Example 54], the concentration for half-maximal inhibition (IC50) lay in the range of 100 to 1000 nM.

As to `CCOC[C@@]1(O)CC[C@H]2[C@H](CC[C@@H]3[C@@H]2CC[C@]2(C)[C@@H](C(=O)Nc4ccnn4C4CCCC4)CC[C@@H]32)C1` [Example 55], the half-inhibitory concentration (IC50) was less than 100 nM.

For `CCOC[C@@]1(O)CC[C@H]2[C@H](CC[C@@H]3[C@@H]2CC[C@]2(C)[C@@H](C(=O)Nc4cc(C5CC5)nn4C)CC[C@@H]32)C1` [Example 56], the IC50 is less than 100 nM.

For the compound `CCOC[C@@]1(O)CC[C@H]2[C@H](CC[C@@H]3[C@@H]2CC[C@]2(C)[C@@H](C(=O)Nc4c(C#N)cnn4C)CC[C@@H]32)C1` [Example 57], the IC50 is more than 1000 nM.

With `CCOC[C@@]1(O)CC[C@H]2[C@H](CC[C@@H]3[C@@H]2CC[C@]2(C)[C@@H](C(=O)Nc4cncc(C#N)n4)CC[C@@H]32)C1` [Example 58], the half-inhibitory concentration (IC50) is less than 100 nM.

Turning to `CCOC[C@@]1(O)CC[C@H]2[C@H](CC[C@@H]3[C@@H]2CC[C@]2(C)[C@@H](C(=O)Nc4nc(C)ccc4C)CC[C@@H]32)C1` [Example 59], the IC50 was in the range of 100 to 1000 nM.

Consider `CCOC[C@@]1(O)CC[C@H]2[C@H](CC[C@@H]3[C@@H]2CC[C@]2(C)[C@@H](C(=O)Nc4cccc(C#N)n4)CC[C@@H]32)C1` [Example 60], for which the IC50 is less than 100 nM.

Regarding `CCOC[C@@]1(O)CC[C@H]2[C@H](CC[C@@H]3[C@@H]2CC[C@]2(C)[C@@H](C(=O)Nc4nc(C#N)ccc4C)CC[C@@H]32)C1` [Example 61], the IC50 is 100 to 1000 nM.

Consider `CCOC[C@@]1(O)CC[C@H]2[C@H](CC[C@@H]3[C@@H]2CC[C@]2(C)[C@@H](C(=O)Nc4ncc(C)cc4C)CC[C@@H]32)C1` [Example 62], for which the IC50 was in the range of 100 to 1000 nM.

As to `CCOC[C@@]1(O)CC[C@H]2[C@H](CC[C@@H]3[C@@H]2CC[C@]2(C)[C@@H](C(=O)Nc4ccnc(C)n4)CC[C@@H]32)C1` [Example 63], the IC50 is less than 100 nM.

Regarding `CCOC[C@@]1(O)CC[C@H]2[C@H](CC[C@@H]3[C@@H]2CC[C@]2(C)[C@@H](C(=O)Nc4cccc(N5CCCC5=O)n4)CC[C@@H]32)C1` [Example 64], the IC50 was less than 100 nM.

Regarding `CCOC[C@@]1(O)CC[C@H]2[C@H](CC[C@@H]3[C@@H]2CC[C@]2(C)[C@@H](C(=O)Nc4ccc(N5CCCC5=O)nc4C)CC[C@@H]32)C1` [Example 65], the IC50 was less than 100 nM.

On to `CCOC[C@@]1(O)CC[C@H]2[C@H](CC[C@@H]3[C@@H]2CC[C@]2(C)[C@@H](C(=O)Nc4cccnc4F)CC[C@@H]32)C1` [Example 66, (3R,5R,8R,9R,10S,13S,14S,17S)-3-(ethoxymethyl)-N-(2-fluoropyridin-3-yl)-3-hydroxy-13-methylhexadecahydro-1H-cyclopenta[a]phenanthrene-17-carboxamide], for which the IC50 is less than 100 nM.
